{
  "source": "paper PMC6697681",
  "about": "“The predominance of nucleotidyl activation in bacterial phosphonate biosynthesis” (Nature Communications, 2019)",
  "key": {"Tde-PntC (Tde1415) [1]": {"biological_target": "T1, Tde-PntC (Tde1415) (Treponema denticola, UniProt Q73MU2)", "T1 construct": "full two-domain protein (N-terminal PntC, C-terminal AEPT), C-terminal His tag, pET21b (pGH3000), E. coli BL21(DE3); ~70 kDa monomer, dimer ~146 kDa by DLS", "T1 sequence (Q73MU2 whole entry)": "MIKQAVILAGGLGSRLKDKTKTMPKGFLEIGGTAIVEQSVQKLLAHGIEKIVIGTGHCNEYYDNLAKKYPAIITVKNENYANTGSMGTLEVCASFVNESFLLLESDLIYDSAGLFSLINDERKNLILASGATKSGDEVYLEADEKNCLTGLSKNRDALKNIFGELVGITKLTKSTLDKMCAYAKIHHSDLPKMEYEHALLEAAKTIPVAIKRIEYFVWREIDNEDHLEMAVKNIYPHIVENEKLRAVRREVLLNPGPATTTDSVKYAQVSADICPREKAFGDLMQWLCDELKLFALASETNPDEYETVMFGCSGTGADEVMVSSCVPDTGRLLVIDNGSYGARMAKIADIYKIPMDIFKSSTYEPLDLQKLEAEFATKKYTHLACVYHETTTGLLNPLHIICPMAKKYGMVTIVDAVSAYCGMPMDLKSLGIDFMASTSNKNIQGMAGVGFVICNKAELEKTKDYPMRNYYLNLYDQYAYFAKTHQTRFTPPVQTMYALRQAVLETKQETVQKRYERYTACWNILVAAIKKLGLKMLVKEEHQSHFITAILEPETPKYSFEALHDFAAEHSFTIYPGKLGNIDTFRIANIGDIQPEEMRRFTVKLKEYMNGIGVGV", "test": "X-ray crystal structure, […] Å", "format": "binding", "conditions": "PntC active site, two Mg2+; crystallised with 5 mM CTP and 5 mM AEP"}, "Spn-LicC": {"biological_target": "T2, Spn-LicC (Streptococcus pneumoniae, UniProt Q8DPI6)", "T2 construct": "monomer by DLS", "T2 sequence (Q8DPI6 whole entry)": "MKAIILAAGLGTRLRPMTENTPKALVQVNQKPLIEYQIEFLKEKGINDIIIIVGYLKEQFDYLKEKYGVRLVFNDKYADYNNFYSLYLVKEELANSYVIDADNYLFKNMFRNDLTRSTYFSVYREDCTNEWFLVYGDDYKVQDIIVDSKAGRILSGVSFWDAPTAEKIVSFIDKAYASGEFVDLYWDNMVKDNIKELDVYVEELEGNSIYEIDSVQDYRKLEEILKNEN", "test": "coupled pyrophosphate release assay (EnzChek, MESG/PNP), initial rates", "format": "biochemical", "conditions": "substrate inhibition constant; saturating CTP (4 mM), 7 mM MgCl2, room temperature", "description": "coupled pyrophosphate release assay (EnzChek, MESG/PNP), initial rates on Spn-LicC"}, "Ari-PntC (Ari1348)": {"biological_target": "T3, Ari-PntC (Ari1348) (Lancefieldella rimae, UniProt B9CM12)", "T3 construct": "codon-optimized gene in pET29 (pGH2000), C-terminal His6 tag, E. coli BL21(DE3), Ni-NTA and anion exchange; monomer by DLS", "T3 sequence (B9CM12 whole entry)": "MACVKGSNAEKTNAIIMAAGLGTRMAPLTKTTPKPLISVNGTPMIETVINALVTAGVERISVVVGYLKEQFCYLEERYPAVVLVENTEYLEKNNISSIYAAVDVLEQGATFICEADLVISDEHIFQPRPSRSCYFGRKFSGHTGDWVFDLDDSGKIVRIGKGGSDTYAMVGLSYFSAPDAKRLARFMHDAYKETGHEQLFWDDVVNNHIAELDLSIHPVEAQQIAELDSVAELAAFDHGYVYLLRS", "test": "coupled pyrophosphate release assay (EnzChek, MESG/PNP), initial rates", "format": "biochemical", "conditions": "substrate inhibition constant; saturating CTP (4 mM), 7 mM MgCl2, room temperature", "description": "coupled pyrophosphate release assay (EnzChek, MESG/PNP), initial rates on Ari-PntC (Ari1348)"}, "Tde-PntC (Tde1415) [2]": {"biological_target": "T1, Tde-PntC (Tde1415)", "test": "X-ray crystal structure", "format": "binding", "conditions": "AEPT domain, non-covalently bound PLP"}},
  "data": [
    {"smiles": "NCCP(=O)(O)OP(=O)(O)OC[C@H]1O[C@@H](n2ccc(N)nc2=O)[C@H](O)[C@@H]1O", "note": "[CMP-AEP]", "values": [
      {"measurement": "X-ray crystal structure, 1.95 Å", "setting": "Tde-PntC (Tde1415) [1]", "result": "Tde1415 and Tde1415:CMP-AEP have been deposited in the Protein Data Bank"}
    ]},
    {"smiles": "C[N+](C)(C)CCOP(=O)([O-])O", "note": "[P-Cho]", "values": [
      {"measurement": "KS", "setting": "Spn-LicC", "result": "6.4 ± 0.9", "unit": "mM"},
      {"measurement": "KS", "setting": "Ari-PntC (Ari1348)", "result": "4 ± 1", "unit": "mM"}
    ]},
    {"smiles": "Cc1ncc(COP(=O)(O)O)c(C=O)c1O", "note": "[PLP]", "values": [
      {"measurement": "X-ray crystal structure", "setting": "Tde-PntC (Tde1415) [2]", "result": "The AEPT domain of Tde1415 possesses PLP and the requisite active site features"}
    ]}
  ]
}
